Source: US11019818B2, “Herbicidal 3-substituted lactams” (FMC Corporation, priority 2017, dated 2021)

Experiments:
Type in all cases: in vivo
[1] = system: barnyardgrass (Echinochloa crus-galli); test: Test A postemergence, barnyardgrass; conditions: 0 to 100 scale (0 no effect, 100 complete control), approx. 10 d
From the text: (§1) Seeds of plant species selected from barnyardgrass (Echinochloa crus-galli), kochia (Kochia scoparia), ragweed (common ragweed, Ambrosia elatior), ryegrass, Italian (Italian ryegrass, Lolium multiflorum), foxtail, green (green foxtail, Setaria viridis), and pigweed (Amaranthus retroflexus) were planted into a blend of loam soil and sand and treated preemergence with a directed soil spray using test chemicals formulated in a non-phytotoxic solvent mixture which included a surfactant. At the same time, plants selected from these weed species and also wheat (Triticum aestivum), corn (Zea mays), blackgrass (Alopecurus myosuroides), and galium (catchweed bedstraw, Galium aparine) were planted in pots containing the same blend of loam soil and sand and treated with postemergence applications of test chemicals formulated in the same manner. Plants ranged in height from 2 to 10 cm and were in the one- to two-leaf stage for the postemergence treatment. Treated plants and untreated controls were maintained in a greenhouse for approximately 10 d, after which time all treated plants were compared to untreated controls and visually evaluated for injury. Plant response ratings, summarized in Table A, are based on a 0 to 100 scale where 0 is no effect and 100 is complete control. A dash (-) response means no test result.

kochia (Kochia scoparia) [2] = test: Test A postemergence, kochia; conditions: 0 to 100 scale (0 no effect, 100 complete control), approx. 10 d
From the text: as §1

[3] = system: ragweed (common ragweed, Ambrosia elatior); test: Test A postemergence, ragweed; conditions: 0 to 100 scale (0 no effect, 100 complete control), approx. 10 d
From the text: as §1

[4] = system: ryegrass, Italian (Italian ryegrass, Lolium multiflorum); test: Test A postemergence, Italian ryegrass; conditions: 0 to 100 scale (0 no effect, 100 complete control), approx. 10 d
From the text: as §1

[5] = system: foxtail, green (green foxtail, Setaria viridis); test: Test A postemergence, green foxtail; conditions: 0 to 100 scale (0 no effect, 100 complete control), approx. 10 d
From the text: as §1

[6] = system: pigweed (Amaranthus retroflexus); test: Test A postemergence, pigweed; conditions: 0 to 100 scale (0 no effect, 100 complete control), approx. 10 d
From the text: as §1

[7] = system: wheat (Triticum aestivum); test: Test A postemergence, wheat; conditions: 0 to 100 scale (0 no effect, 100 complete control), approx. 10 d
From the text: as §1

corn (Zea mays) = test: Test A postemergence, corn; conditions: 0 to 100 scale (0 no effect, 100 complete control), approx. 10 d
From the text: as §1

[8] = system: blackgrass (Alopecurus myosuroides); test: Test A postemergence, blackgrass; conditions: 0 to 100 scale (0 no effect, 100 complete control), approx. 10 d
From the text: as §1

[9] = system: galium (catchweed bedstraw, Galium aparine); test: Test A postemergence, galium; conditions: 0 to 100 scale (0 no effect, 100 complete control), approx. 10 d
From the text: as §1

[10] = system: barnyardgrass (Echinochloa crus-galli); test: Test A preemergence, barnyardgrass; conditions: 0 to 100 scale (0 no effect, 100 complete control), approx. 10 d
From the text: as §1

kochia (Kochia scoparia) [11] = test: Test A preemergence, kochia; conditions: 0 to 100 scale (0 no effect, 100 complete control), approx. 10 d
From the text: as §1

[12] = system: ragweed (common ragweed, Ambrosia elatior); test: Test A preemergence, ragweed; conditions: 0 to 100 scale (0 no effect, 100 complete control), approx. 10 d
From the text: as §1

[13] = system: ryegrass, Italian (Italian ryegrass, Lolium multiflorum); test: Test A preemergence, Italian ryegrass; conditions: 0 to 100 scale (0 no effect, 100 complete control), approx. 10 d
From the text: as §1

[14] = system: foxtail, green (green foxtail, Setaria viridis); test: Test A preemergence, green foxtail; conditions: 0 to 100 scale (0 no effect, 100 complete control), approx. 10 d
From the text: as §1

[15] = system: pigweed (Amaranthus retroflexus); test: Test A preemergence, pigweed; conditions: 0 to 100 scale (0 no effect, 100 complete control), approx. 10 d
From the text: as §1

[16] = system: barnyardgrass (Echinochloa crus-galli); test: Test B flooded paddy test, barnyardgrass; conditions: Flood, 250 g ai/ha; applied to paddy water at 2-leaf stage; visual rating after 13 to 15 d; scale 0 to 100, 0 is no effect, 100 is complete control
Description: (§2) Plant species in the flooded paddy test selected from rice (Oryza sativa), sedge, umbrella (small-flower umbrella sedge, Cyperus difformis), ducksalad (Heteranthera limosa), and barnyardgrass (Echinochloa crus-galli) were grown to the 2-leaf stage for testing. At time of treatment, test pots were flooded to 3 cm above the soil surface, treated by application of test compounds directly to the paddy water, and then maintained at that water depth for the duration of the test. Treated plants and controls were maintained in a greenhouse for 13 to 15 d, after which time all species were compared to controls and visually evaluated. Plant response ratings, summarized in Table B, are based on a scale of 0 to 100 where 0 is no effect and 100 is complete control. A dash (-) response means no test result.

[17] = system: ducksalad (Heteranthera limosa); test: Test B flooded paddy test, ducksalad; conditions: Flood, 250 g ai/ha; applied to paddy water at 2-leaf stage; visual rating after 13 to 15 d; scale 0 to 100, 0 is no effect, 100 is complete control
Description: as §2

rice (Oryza sativa) = test: Test B flooded paddy test, rice; conditions: Flood, 250 g ai/ha; applied to paddy water at 2-leaf stage; visual rating after 13 to 15 d; scale 0 to 100, 0 is no effect, 100 is complete control
Description: as §2

[18] = system: sedge, umbrella (small-flower umbrella sedge, Cyperus difformis); test: Test B flooded paddy test, umbrella sedge; conditions: Flood, 250 g ai/ha; applied to paddy water at 2-leaf stage; visual rating after 13 to 15 d; scale 0 to 100, 0 is no effect, 100 is complete control
Description: as §2

CN(C)CC1(C(=O)Nc2cccc(F)c2F)C(=O)N(C)CC1c1ccc(C(F)(F)F)cc1 (stereo not drawn) [Compound 9]
95: Plant response rating, Ducksalad [17]
40: Plant response rating, Corn (corn (Zea mays); 31 g ai/ha)
70: Plant response rating, Barnyardgrass ([1]; 31 g ai/ha) | Plant response rating, Kochia (kochia (Kochia scoparia) [2]; 125 g ai/ha) | Plant response rating, Kochia (kochia (Kochia scoparia) [11]; 125 g ai/ha) | Plant response rating, Pigweed ([15]; 31 g ai/ha)
90: Plant response rating, Barnyardgrass ([1]; 125 g ai/ha) | Plant response rating, Foxtail, Green ([5]; 125 g ai/ha) | Plant response rating, Barnyardgrass ([10]; 31 g ai/ha) | Plant response rating, Barnyardgrass ([10]; 125 g ai/ha) | Plant response rating, Foxtail, Green ([14]; 31 g ai/ha) | Plant response rating, Foxtail, Green ([14]; 125 g ai/ha)
0: Plant response rating, Ragweed ([12]; 31 g ai/ha) | Plant response rating, Rice (rice (Oryza sativa)) | Plant response rating, Sedge, Umbrella [18]
50: Plant response rating, Kochia (kochia (Kochia scoparia) [2]; 31 g ai/ha) | Plant response rating, Ryegrass, Italian ([4]; 31 g ai/ha) | Plant response rating, Foxtail, Green ([5]; 31 g ai/ha) | Plant response rating, Corn (corn (Zea mays); 125 g ai/ha) | Plant response rating, Blackgrass ([8]; 31 g ai/ha)
30: Plant response rating, Ragweed ([3]; 31 g ai/ha) | Plant response rating, Ragweed ([3]; 125 g ai/ha) | Plant response rating, Pigweed ([6]; 31 g ai/ha) | Plant response rating, Wheat ([7]; 31 g ai/ha) | Plant response rating, Kochia (kochia (Kochia scoparia) [11]; 31 g ai/ha)
60: Plant response rating, Ryegrass, Italian ([4]; 125 g ai/ha) | Plant response rating, Wheat ([7]; 125 g ai/ha) | Plant response rating, Blackgrass ([8]; 125 g ai/ha) | Plant response rating, Galium ([9]; 31 g ai/ha) | Plant response rating, Galium ([9]; 125 g ai/ha) | Plant response rating, Ragweed ([12]; 125 g ai/ha) | Plant response rating, Ryegrass, Italian ([13]; 31 g ai/ha)
65: Plant response rating, Barnyardgrass [16]
80: Plant response rating, Pigweed ([6]; 125 g ai/ha) | Plant response rating, Ryegrass, Italian ([13]; 125 g ai/ha) | Plant response rating, Pigweed ([15]; 125 g ai/ha)

(3S,4R)-3-acetyl-N-(2,3-difluorophenyl)-1-methyl-2-oxo-4-[4-(trifluoromethyl)phenyl]-3-pyrrolidinecarboxamide [Compound 3]
60: Plant response rating, Kochia (kochia (Kochia scoparia) [2]; 125 g ai/ha) | Plant response rating, Foxtail, Green ([5]; 125 g ai/ha) | Plant response rating, Pigweed ([6]; 125 g ai/ha)
30: Plant response rating, Blackgrass ([8]; 125 g ai/ha)
50: Plant response rating, Ryegrass, Italian ([4]; 125 g ai/ha) | Plant response rating, Galium ([9]; 125 g ai/ha) | Plant response rating, Kochia (kochia (Kochia scoparia) [11]; 125 g ai/ha)
100: Plant response rating, Pigweed ([15]; 125 g ai/ha)
0: Plant response rating, Kochia (kochia (Kochia scoparia) [2]; 31 g ai/ha) | Plant response rating, Ragweed ([3]; 31 g ai/ha) | Plant response rating, Foxtail, Green ([5]; 31 g ai/ha) | Plant response rating, Wheat ([7]; 31 g ai/ha) | Plant response rating, Kochia (kochia (Kochia scoparia) [11]; 31 g ai/ha) | Plant response rating, Ragweed ([12]; 31 g ai/ha) | Plant response rating, Sedge, Umbrella [18]
20: Plant response rating, Blackgrass ([8]; 31 g ai/ha) | Plant response rating, Ragweed ([12]; 125 g ai/ha) | Plant response rating, Ryegrass, Italian ([13]; 31 g ai/ha) | Plant response rating, Pigweed ([15]; 31 g ai/ha)
40: Plant response rating, Barnyardgrass ([1]; 31 g ai/ha) | Plant response rating, Ragweed ([3]; 125 g ai/ha) | Plant response rating, Ryegrass, Italian ([4]; 31 g ai/ha) | Plant response rating, Pigweed ([6]; 31 g ai/ha) | Plant response rating, Wheat ([7]; 125 g ai/ha) | Plant response rating, Galium ([9]; 31 g ai/ha) | Plant response rating, Ryegrass, Italian ([13]; 125 g ai/ha)
10: Plant response rating, Corn (corn (Zea mays); 31 g ai/ha) | Plant response rating, Rice (rice (Oryza sativa))
80: Plant response rating, Corn (corn (Zea mays); 125 g ai/ha) | Plant response rating, Barnyardgrass ([10]; 31 g ai/ha) | Plant response rating, Ducksalad [17]
70: Plant response rating, Barnyardgrass ([1]; 125 g ai/ha)
45: Plant response rating, Barnyardgrass [16]
90: Plant response rating, Barnyardgrass ([10]; 125 g ai/ha) | Plant response rating, Foxtail, Green ([14]; 31 g ai/ha) | Plant response rating, Foxtail, Green ([14]; 125 g ai/ha)
